# Measured values as given in ChEMBL document CHEMBL5329153, “Is structural hybridization invoking new dimensions for antimalarial drug discovery research?” (RSC Med Chem, 2023).
# What was measured:
# Plasmodium falciparum [1] = experiment: Antimalarial activity against Chloroquine sensitive Plasmodium falciparum D6 assessed as parasitic growth inhibition; type: functional, organism-based
# Plasmodium falciparum [2] = experiment: Antimalarial activity against Chloroquine resistant Plasmodium falciparum W2 assessed as parasitic growth inhibition; type: functional, organism-based
# Plasmodium falciparum [3] = experiment: Potency index, ratio of chloroquine IC50 to test compound IC50 for antimalarial activity against Chloroquine resistant Plasmodium falciparum W2 assessed as parasitic growth inhibition; type: functional
# Plasmodium falciparum [4] = experiment: Potency index, ratio of chloroquine IC50 to test compound IC50 for antimalarial activity against Chloroquine sensitive Plasmodium falciparum D6 assessed as parasitic growth inhibition; type: functional
# Plasmodium falciparum [5] = experiment: Antimalarial activity against Chloroquine sensitive Plasmodium falciparum RKL-2 assessed as parasitic growth inhibition measured after 36 to 40 hrs by Giemsa staining based assay; type: functional, organism-based
# Plasmodium falciparum [6] = experiment: Antimalarial activity against chloroquine sensitive Plasmodium falciparum 3D7 assessed as parasitic growth inhibition by SYBR Green I dye based assay; type: functional, organism-based
# Plasmodium falciparum [7] = experiment: Antimalarial activity against Chloroquine sensitive Plasmodium falciparum assessed as parasitic growth inhibition; type: functional, organism-based
# Plasmodium falciparum [8] = experiment: Antimalarial activity against mefloquine resistant Plasmodium falciparum F32 assessed as parasitic growth inhibition measured after 48 hrs; type: functional, organism-based; conditions: F32, 48 h
# Plasmodium falciparum [9] = experiment: Antimalarial activity against mefloquine resistant Plasmodium falciparum Thai assessed as parasitic growth inhibition measured after 48 hrs; type: functional, organism-based
# Plasmodium falciparum [10] = experiment: Antimalarial activity against mefloquine resistant Plasmodium falciparum FcB1 assessed as parasitic growth inhibition measured after 48 hrs; type: functional, organism-based; conditions: FcB1, 48 h
# Plasmodium falciparum [11] = experiment: Antimalarial activity against mefloquine resistant Plasmodium falciparum K1 assessed as parasitic growth inhibition measured after 48 hrs; type: functional, organism-based; conditions: K1, 48 h
# Plasmodium falciparum [12] = experiment: Antimalarial activity against chloroquine resistant Plasmodium falciparum F32 assessed as parasitic growth inhibition measured after 48 hrs; type: functional, organism-based; conditions: F32, 48 h
# Plasmodium falciparum [13] = experiment: Antimalarial activity against chloroquine resistant Plasmodium falciparum Thai assessed as parasitic growth inhibition measured after 48 hrs; type: functional, organism-based
# Plasmodium falciparum [14] = experiment: Antimalarial activity against chloroquine resistant Plasmodium falciparum FcB1 assessed as parasitic growth inhibition measured after 48 hrs; type: functional, organism-based; conditions: FcB1, 48 h
# Plasmodium falciparum [15] = experiment: Antimalarial activity against chloroquine resistant Plasmodium falciparum K1 assessed as parasitic growth inhibition measured after 48 hrs; type: functional, organism-based; conditions: K1, 48 h
# Plasmodium falciparum [16] = experiment: Antimalarial activity against Chloroquine-pyrimethamine resistant Plasmodium falciparum W2 assessed as parasitic growth inhibition measured after 48 hrs; type: functional, organism-based; conditions: W2, 48 h
# Plasmodium falciparum [17] = experiment: Antimalarial activity against Chloroquine-pyrimethamine sensitive Plasmodium falciparum D6 assessed as parasitic growth inhibition measured after 48 hrs; type: functional, organism-based; conditions: D6, 48 h
# Hemozoin = experiment: Inhibition of beta-hematin formation
# Plasmodium falciparum [18] = experiment: Antimalarial activity against Plasmodium falciparum 3D7 assessed as parasitic growth inhibition measured after 72 hrs by SYBR Green dye based assay; type: functional, organism-based; conditions: 3D7, 72 h
# Plasmodium falciparum [19] = experiment: Antimalarial activity against Chloroquine resistant Plasmodium falciparum assessed as parasitic growth inhibition by microscopic anlaysis; type: functional, organism-based
# Plasmodium falciparum [20] = experiment: Antimalarial activity against Chloroquine sensitive Plasmodium falciparum 3D7 assessed as parasitic growth inhibition measured after 24 hrs; type: functional, organism-based; conditions: 3D7, 24 h
# Plasmodium falciparum [21] = experiment: Antimalarial activity against Plasmodium falciparum male gametocytes assessed as parasitic growth inhibition; type: functional, organism-based
# Plasmodium falciparum [22] = experiment: Antimalarial activity against Plasmodium falciparum female gametocytes assessed as parasitic growth inhibition; type: functional, organism-based
# Plasmodium falciparum [23] = experiment: Antimalarial activity against Plasmodium falciparum male gametocytes assessed as parasitic growth inhibition by exflagellation assay; type: functional, organism-based
# Plasmodium falciparum [24] = experiment: Potency index, ratio of mefloquine IC50 to test compound IC50 for antimalarial activity against Plasmodium falciparum female gametocytes assessed as parasitic growth inhibition; type: functional
# Plasmodium falciparum [25] = experiment: Potency index, ratio of artesunate IC50 to test compound IC50 for antimalarial activity against Plasmodium falciparum female gametocytes assessed as parasitic growth inhibition; type: functional
# Plasmodium falciparum [26] = experiment: Antimalarial activity against Plasmodium falciparum 3D7 assessed as parasitic growth inhibition; type: functional, organism-based
# Plasmodium falciparum [27] = experiment: Antimalarial activity against Plasmodium falciparum Dd2 assessed as parasitic growth inhibition; type: functional, organism-based
# Plasmodium falciparum [28] = experiment: Antimalarial activity against Plasmodium falciparum K1 assessed as parasitic growth inhibition; type: functional, organism-based
# Plasmodium falciparum [29] = experiment: Antimalarial activity against Chloroquine sensitive Plasmodium falciparum 3D7 assessed as parasitic growth inhibition measured after 3 days by ELISA assay; type: functional, organism-based; conditions: 3D7, 72 h
# Plasmodium falciparum [30] = experiment: Antimalarial activity against Chloroquine resistant Plasmodium falciparum Dd2 assessed as parasitic growth inhibition measured after 3 days by ELISA assay; type: functional, organism-based; conditions: Dd2, 72 h
compound,measurement,setting,value
Cc1cc(NCCCCNc2ccnc3cc(Cl)ccc23)nc(Nc2ccc(C(=O)N3CCOCC3)cc2)n1,IC50,Plasmodium falciparum [1],32 nM
same,IC50,Plasmodium falciparum [2],33 nM
same,Ratio IC50,Plasmodium falciparum [3],11
same,Ratio IC50,Plasmodium falciparum [4],11
Fc1ccc(Nc2nc(NCCCNc3ccnc4cc(Cl)ccc34)nc(Nc3ccc(F)c(Cl)c3)n2)cc1Cl,IC50,Plasmodium falciparum [5],56 µg/mL
CCCCNc1c2ccc(Cl)cc2nc2ccc(OC)cc12,IC50,Plasmodium falciparum [6],26.4 nM
COc1ccc2nc3cc(Cl)ccc3c(NCC3C(=O)c4ccc5c6c(ccc(c46)C3=O)C(=O)N(CCn3ccnc3)C5=O)c2c1,IC50,Plasmodium falciparum [6],8.44 nM
CC1=C(C(=O)Nc2ccc(Br)cn2)C(c2cn(-c3ccccc3)nc2-c2ccc(F)cc2)NC(=O)N1 (stereo not given),IC50,Plasmodium falciparum [7],0.07 µg/mL
CC1=C(CN2CCCCC2C(O)c2cc(C(F)(F)F)nc3c(C(F)(F)F)cccc23)[C@@H]2C[C@@H](C)C[C@@H]3C[C@]4(C)CC[C@@H](O1)[C@@]32OO4 (stereo not given in full),IC50,Plasmodium falciparum [8],2.4 nM
same,IC50,Plasmodium falciparum [9],2.4 nM
same,IC50,Plasmodium falciparum [10],2.4 nM
same,IC50,Plasmodium falciparum [11],2.4 nM
same,IC50,Plasmodium falciparum [12],2.4 nM
same,IC50,Plasmodium falciparum [13],2.4 nM
same,IC50,Plasmodium falciparum [14],2.4 nM
same,IC50,Plasmodium falciparum [15],2.4 nM
N=C(N=C(N)N)SCCNc1ccnc2cc(Cl)ccc12,IC50,Plasmodium falciparum [16],3710 nM
same,IC50,Plasmodium falciparum [17],2250 nM
COc1ccc(OC)c2c1CC(Nc1ccnc3cc(Cl)ccc13)C2,IC50,Hemozoin,480 nM
Clc1ccc2c(NCCCNc3nc(Nc4ccc(N5CCOCC5)cc4)nc(Nc4ccc(N5CCOCC5)cc4)n3)ccnc2c1,IC50,Plasmodium falciparum [5],47.5 µg/mL
C[C@H]1[C@H](OC(=O)CCC(=O)Oc2ccc(Nc3ncnc4ccccc34)cc2)O[C@@H]2O[C@@]3(C)CC[C@H]4[C@H](C)CC[C@@H]1[C@@]24OO3,EC50,Plasmodium falciparum [18],3.8 nM
C[C@H]1[C@H](OC(=O)CCC(=O)Nc2cccc3ncnc(Nc4ccc(Cl)c(Cl)c4)c23)O[C@@H]2O[C@@]3(C)CC[C@H]4[C@H](C)CC[C@@H]1[C@@]24OO3,EC50,Plasmodium falciparum [18],1.4 nM
CCCCN1C(=O)c2ccc3c4c(ccc(c24)C1=O)C(=O)C(CCNc1c2ccc(Cl)cc2nc2ccc(OC)cc12)C3=O,IC50,Plasmodium falciparum [6],3.89 nM
COc1ccc2nc3cc(Cl)ccc3c(NCC3C(=O)c4ccc5c6c(ccc(c46)C3=O)C(=O)N(CN(C)C)C5=O)c2c1,IC50,Plasmodium falciparum [6],4.33 nM
CCCCNC(=S)NNC(=O)c1cc(-c2ccc(F)cc2)nc2c(Cl)cc(C(F)(F)F)cc12,IC50,Plasmodium falciparum [19],0.28 µg/mL
Cc1ccc(-c2nn(-c3nc4ccccc4s3)cc2/C=N\c2cccc(Cl)c2)cc1,EC50,Plasmodium falciparum [20],1950 nM
C[C@H]1[C@@H](OC(=O)CCC(=O)O)O[C@@H]2C[C@@]3(C)CC[C@H]4[C@H](C)CC[C@@H]1[C@@]24OO3.Cc1cccc2c(C(O)C3CCCCN3)cc(C(F)(F)F)nc12 (racemic),IC50,Plasmodium falciparum [21],4600 nM
same,IC50,Plasmodium falciparum [22],20 nM
same,IC50,Plasmodium falciparum [23],17 nM
same,Ratio IC50,Plasmodium falciparum [24],280
same,Ratio IC50,Plasmodium falciparum [25],15
C[C@@H]1CC[C@H]2[C@@H](C)C(=O)O[C@@H]3O[C@@]4(C)CC[C@@H]1[C@]32OO4 [ARTEMISININ],IC50,Plasmodium falciparum [21],12700 nM
same,IC50,Plasmodium falciparum [22],300 nM
same,IC50,Plasmodium falciparum [23],120 nM
CCN(CC)CCCC(C)Nc1ccnc2cc(Cl)ccc12 (stereo not given) [CHLOROQUINE],EC50,Plasmodium falciparum [18],9.8 nM
same,EC50,Plasmodium falciparum [26],12.7 nM
same,EC50,Plasmodium falciparum [27],165 nM
same,EC50,Plasmodium falciparum [28],303 nM
same,IC50,Hemozoin,180 nM
OC(c1cc(C(F)(F)F)nc2c(C(F)(F)F)cccc12)C1CCCCN1 (stereo not given) [MEFLOQUINE],IC50,Plasmodium falciparum [21],16500 nM
same,IC50,Plasmodium falciparum [22],5600 nM
COc1cc(NC(C)CCCN)c2ncccc2c1 (stereo not given) [PRIMAQUINE],IC50,Plasmodium falciparum [29],1500 nM
same,IC50,Plasmodium falciparum [30],4300 nM
CCc1nc(N)nc(N)c1-c1ccc(Cl)cc1 [PYRIMETHAMINE],IC50,Plasmodium falciparum [7],0.25 µg/mL
C=C[C@H]1CN2CC[C@H]1C[C@H]2[C@H](O)c1ccnc2ccc(OC)cc12 [QUININE],IC50,Plasmodium falciparum [19],0.268 µg/mL
